Reference: patent US20240208961A1, “EIF4E INHIBITORS AND USES THEREOF” (PIC Therapeutics, Inc., priority 2022, published 2024)

How the values were obtained:
Assay type in all cases: cell-based
ZR-75-1 [1] = experiment: Cell viability assay, adherent cell line, 5 day Alamar Blue (Example 8): ZR-75-1; conditions: Homo sapiens, 120 h, ZR-75-1, Breast Cancer Cell Viability
Procedure: (§1) Cell viability assays were performed on certain compounds of the disclosure, according to the following procedure.
(§2) Cell line specific media conditions used:
(§3) The procedure for adherent cell line compound screening was as follows:
(§4) • Cells were seeded in 96-well cell culture treated tissue culture plates: ZR-75-1, NIHOVCAR3, T47D, and LOVO cells 4000 cells/well; and HPAFII 3000 cell/well
(§5) Day 3: Compound Dilution and Dosing
(§6) • 5-fold serial dilution (8 point) of each compound in DMSO 0-25 mM in compound storage plates was prepared (stored at −80° C. if not to be used immediately). • Cells were rinsed with 1% FBS Media (appropriate to cell line as described above) and replaced with 87.5 μL media prior to dosing. HPAFII was screened in normal 10% FBS Media. • DMSO compound dilution series was diluted in 1% FBS media (appropriate to cell line as described above)—2 μL in 248 μL to give an 8× final concentration. • Cells were dosed 12.5 μL/well in triplicate to give final dose curved on cells 0-25 μM. • Media blank 100 μL/well×8 was set up. • All plates were incubated at 37° C.
(§7) Day 8: 5 Day Viability Assay
(§8) • Alamar Blue viability reagent was added (10 μL per well) and incubated for 3 hours at 37° C. prior to fluorescence detection (Ex560 nm/Em590 nm) on a Varioskan Lux multimode plate reader.
(§9) Results from cell viability assays are summarized in Table 23, wherein A represents IC50≤1 μM; B represents 1 μM<IC50≤8 μM; and C represents IC50>8 μM. Blank cells indicate that the compound was not tested in a particular assay.

NIHOVCAR3 = experiment: Cell viability assay, adherent cell line, 5 day Alamar Blue (Example 8): NIHOVCAR3; conditions: Homo sapiens, OVCAR-3, 120 h, OVCAR3, Ovarian Cancer Cell
Procedure: as §1, §2, §3, §4, §5, §6, §7, §8, §9

NCIH510A = experiment: Cell viability assay, suspension cell line, 5 day Alamar Blue (Example 8): NCIH510A; conditions: Homo sapiens, NCI-H510A, 120 h, Small Cell Lung Cancer Cell Line
Procedure: as §1, §2
(§10) The procedure for suspension cell line compound screening was as follows:
(§11) Day 1: Cell Seeding and Compound Dosing
as §6, with “• Cells were seeded 2×10^5 in 96-well cell culture treated tissue culture plates: 87.5 μL/well; MM.1 S, MM,1R, NCIH510A. • 5-fold” for “• 5-fold”, “to dosing. • DMSO” for “to dosing. HPAFII was screened in normal 10% FBS Media. • DMSO”
(§12) Day 6: 5 Day Viability Assay
as §8, §9

T47D = experiment: Cell viability assay, adherent cell line, 5 day Alamar Blue (Example 8): T47D; conditions: Homo sapiens, 120 h, Breast Cancer Cell Viability
Procedure: as §1, §2, §3, §4, §5, §6, §7, §8, §9

MM.1R = experiment: Cell viability assay, suspension cell line, 5 day Alamar Blue (Example 8): MM.1R; conditions: 120 h, Multiple Myeloma (Steroid Resistant) Cancer Cell
Procedure: as §1, §2, §10, §11
as §6, with “• Cells were seeded 2×10^5 in 96-well cell culture treated tissue culture plates: 87.5 μL/well; MM.1 S, MM,1R, NCIH510A. • 5-fold” for “• 5-fold”, “to dosing. • DMSO” for “to dosing. HPAFII was screened in normal 10% FBS Media. • DMSO”
as §12, §8, §9

HPAFII = experiment: Cell viability assay, adherent cell line, 5 day Alamar Blue (Example 8): HPAFII; conditions: Homo sapiens, HPAF-II, 120 h, Pancreatic Cancer Cell
Procedure: as §1, §2, §3, §4, §5, §6, §7, §8, §9

LoVo = experiment: Cell viability assay, adherent cell line, 5 day Alamar Blue (Example 8): LoVo; conditions: Homo sapiens, 120 h, Colorectal Cancer Cell Viability
Procedure: as §1, §2, §3, §4, §5, §6, §7, §8, §9

ZR-75-1 [2] = experiment: ZR-75-1 compound screening cell viability, Alamar Blue (Example 6); conditions: Homo sapiens, 96 h, ZR-75-1 cells, Media 1% FBS, read-out: ZR-75-1 Cell Viability, 4 Days: IC50
MM.1S = experiment: Cell viability assay, suspension cell line, 5 day Alamar Blue (Example 8): MM.1S; conditions: Homo sapiens, MM1.S, 120 h, Multiple Myeloma (Steroid Sensitive) Cancer Cell
Procedure: as §1, §2, §10, §11
as §6, with “• Cells were seeded 2×10^5 in 96-well cell culture treated tissue culture plates: 87.5 μL/well; MM.1 S, MM,1R, NCIH510A. • 5-fold” for “• 5-fold”, “to dosing. • DMSO” for “to dosing. HPAFII was screened in normal 10% FBS Media. • DMSO”
as §12, §8, §9

SMILES	IC50 (T47D) [µM]	IC50 (MM.1R) [µM]	IC50 (LoVo) [µM]	IC50 (MM.1S) [µM]	IC50 (ZR-75-1 [1]) [µM]	IC50 (NIHOVCAR3) [µM]	IC50 (NCIH510A) [µM]	IC50 (HPAFII) [µM]	IC50 (ZR-75-1 [2]) [µM]
CC(C)Cc1sc(Nc2ncc(-c3cccs3)cc2C(=O)O)nc1C1=CCOCC1 [Compound I-1]					≤ 1				
CC(C)Cc1sc(Nc2ncc(-c3cccs3)cc2C(=O)O)nc1C1=CCCCC1 [Compound I-2]					≤ 1				
CC(C)Cc1sc(Nc2ncc(-c3cccs3)cc2C(=O)O)nc1C1CCCCC1 [Compound I-3]	1 to 8	1 to 8	1 to 8	1 to 8	≤ 1	1 to 8	1 to 8	≤ 1	< 1
CC(C)Cc1sc(Nc2ncc(-c3cccs3)cc2C(=O)O)nc1C1(C)CCCCC1 [Compound I-27]	≤ 1	1 to 8	≤ 1	1 to 8	≤ 1	1 to 8	≤ 1	1 to 8	
CC(C)Cc1sc(Nc2ncc(-c3cccs3)cc2C(=O)O)nc1C1CCC(F)(F)CC1 [Compound I-29]	1 to 8	1 to 8	1 to 8	1 to 8	≤ 1	1 to 8	≤ 1	1 to 8	

More lines, main results first:

IC50 (T47D) [µM]	IC50 (MM.1R) [µM]	IC50 (LoVo) [µM]	IC50 (MM.1S) [µM]	SMILES	IC50 (ZR-75-1 [1]) [µM]	IC50 (NIHOVCAR3) [µM]	IC50 (NCIH510A) [µM]	IC50 (HPAFII) [µM]	IC50 (ZR-75-1 [2]) [µM]
≤ 1	≤ 1	≤ 1	≤ 1	CC(C)Cc1sc(Nc2ncc(-c3cccs3)cc2C(=O)O)nc1C1=CCCC1 [Compound I-8]	≤ 1	≤ 1	≤ 1	≤ 1	
≤ 1	≤ 1	≤ 1	≤ 1	CC(C)Cc1sc(Nc2ncc(-c3cccs3)cc2C(=O)O)nc1C(C)(C)C [Compound I-11]	≤ 1	≤ 1	≤ 1	≤ 1	< 1
